According to publication PMC6079014, “Calcium is an essential cofactor for metal efflux by the ferroportin transporter family” (Nature Communications, 2018):

Columns and labels:
[1] = biological target: T1, Fpn-C2-E219A (Mus musculus, UniProt Q9JHI9, DEL251-290/DEL401-449/E219A); assay: Isothermal titration calorimetry, Fpn-C2-E219A mutant; format: binding
T1 construct: generated from full-length mouse Fpn (UniProt: Q9JHI9); GFP (C); made in house; host or cells: Sf9 insect cells (baculovirus)
T1 sequence (Q9JHI9 with tags, fused parts or gaps E219A/DEL251-290/DEL401-449): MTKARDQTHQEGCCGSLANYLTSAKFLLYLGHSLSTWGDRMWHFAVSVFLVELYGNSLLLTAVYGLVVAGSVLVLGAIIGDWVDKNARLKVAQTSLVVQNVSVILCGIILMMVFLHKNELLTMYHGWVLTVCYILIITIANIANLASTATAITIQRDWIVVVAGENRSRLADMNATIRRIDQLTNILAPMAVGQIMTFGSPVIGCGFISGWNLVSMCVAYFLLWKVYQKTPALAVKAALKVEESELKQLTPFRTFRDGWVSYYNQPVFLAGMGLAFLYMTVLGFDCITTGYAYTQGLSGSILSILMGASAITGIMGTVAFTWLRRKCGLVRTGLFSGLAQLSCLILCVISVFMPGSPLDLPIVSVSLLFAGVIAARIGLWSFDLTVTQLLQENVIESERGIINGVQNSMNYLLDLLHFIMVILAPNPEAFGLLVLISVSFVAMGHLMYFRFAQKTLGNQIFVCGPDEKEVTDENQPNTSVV
Text: To obtain a purified mammalian Fpn protein conducive for biophysical studies, we generated a protein construct with an increased thermal stability (Deshpande et al., 2018). In brief, the construct (Fpn-C2) was generated from full-length mouse Fpn (UniProt: Q9JHI9 [https://www.uniprot.org/uniprot/Q9JHI9]) by deleting two-loop regions (residues 251–290 and 401–449), followed by an overlapping PCR incorporating the E219A mutation to generate Fpn-C2-E219A. […]
For Fpn-C2 and Fpn-C2-E219A purification (Deshpande et al., 2018), Sf9 cells were thawed at room temperature with the addition of 2 μl Benzonase (250 units/μL, Sigma-Aldrich), 1 mM MgSO4, 0.2 mM PMSF, and lysed by a single pass through cooled EmulsiFlex-C3 homogenizer (Avestin). […] The SEC eluted protein was concentrated to ~10 mg/ml as determined by the BCA assay (Thermo Fisher Scientific) method and stored at −80 °C until further use. […]
In each experiment, the protein solution was loaded into the sample cell, and the ligand solution was loaded in the syringe. […] To obtain the effective heat of binding, the heat of dilution, measured by injecting the ligand solution alone into buffer, was subtracted prior to data analysis. […]

[2] = biological target: T2, human Fpn (Homo sapiens, UniProt Q9NP59); assay: 55Fe efflux from HEK293T cells with tet-inducible human Fpn; format: cell-based
T2 construct: expressed in transfected cells; host or cells: Xenopus laevis oocytes injected with Fpn RNA
T2 sequence (Q9NP59 1-571): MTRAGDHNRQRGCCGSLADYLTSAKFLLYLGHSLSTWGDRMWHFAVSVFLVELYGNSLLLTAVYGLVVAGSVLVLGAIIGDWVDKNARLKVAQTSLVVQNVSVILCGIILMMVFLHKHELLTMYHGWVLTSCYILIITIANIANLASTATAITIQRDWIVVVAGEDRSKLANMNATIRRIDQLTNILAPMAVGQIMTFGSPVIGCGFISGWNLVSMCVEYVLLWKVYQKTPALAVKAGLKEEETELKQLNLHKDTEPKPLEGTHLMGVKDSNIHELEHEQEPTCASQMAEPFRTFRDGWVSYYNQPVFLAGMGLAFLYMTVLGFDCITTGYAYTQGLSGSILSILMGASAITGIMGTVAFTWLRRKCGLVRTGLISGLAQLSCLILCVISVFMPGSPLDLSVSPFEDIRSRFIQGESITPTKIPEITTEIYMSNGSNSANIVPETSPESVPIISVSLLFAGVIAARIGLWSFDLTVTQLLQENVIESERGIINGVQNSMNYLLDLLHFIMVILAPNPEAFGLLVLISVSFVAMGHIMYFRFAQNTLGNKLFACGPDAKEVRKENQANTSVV
Procedure: We measured ^55Fe efflux from HEK293 cells (E. Nemeth, UCLA) that were stably transfected with a tet-inducible human Fpn construct in pcDNA5/FRT/TO vector (Invitrogen) as described. Fpn expression was induced by adding 0.5 µg/ml doxycycline; data represent % efflux in induced minus uninduced cells. Fpn expression in mammalian cells was confirmed by visualizing GFP fluorescence, which was unaffected by removal of extracellular calcium.

## [Ca+2] [Ca^2+, calcium]
[1]
  Binding to Fpn-C2-E219A by ITC (in words): no binding
[2]; HEK293T cells, 1 mM Ca2+, over 6 h (P = 0.002) and 24 h (P < 0.001), not at earlier time points
  Effect of extracellular Ca2+ on 55Fe efflux: significantly activated
[2]; HEK cells, 0 Ca2+ + 1 mM EGTA vs 1 mM Ca2+
  Effect of removal of extracellular Ca2+ on Fpn-mediated 55Fe efflux: abolished
